Data from the supplement of paper PMC5662764.
± gives the standard deviation of the averaged measurements.

What was measured:
Experiment in all cases: normalised growth rate inhibition (GR value) relative to DMSO control (GR (1 = untreated growth, 0 = cytostasis, <0 = cytotoxic)); higher = less growth inhibition
Conditions in all cases: 72 h
BT20 = test system: BT20
Protocol: (§1)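 Breast cancer cell lines (BT-20, Hs 578T, MCF 10A, MCF7, MDA-MB-231, SK-BR-3) were plated in 384-well plates and treated 24 h later with drugs at six concentrations (0.04-10 µM). Viable cells were counted by Hoechst/dead-cell-stain imaging at 0 and 72 h. Counts were normalised to DMSO controls on the same plate to give the relative cell count and the growth-rate inhibition (GR) value; technical plate triplicates were averaged for each biological replicate.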

HS578T = test system: HS578T
Protocol: as §1

MCF10A = test system: MCF10A
Protocol: as §1

MCF7 = test system: MCF7
Protocol: as §1

MDAMB231 = test system: MDAMB231
Protocol: as §1

SKBR3 = test system: SKBR3
Protocol: as §1

Row | SMILES | normalised growth rate inhibition (BT20; 0.04 µM) | normalised growth rate inhibition (BT20; 0.12 µM) | normalised growth rate inhibition (BT20; 0.37 µM) | normalised growth rate inhibition (BT20; 1.11 µM) | normalised growth rate inhibition (BT20; 3.33 µM) | normalised growth rate inhibition (BT20; 10 µM) | normalised growth rate inhibition (HS578T; 0.04 µM) | normalised growth rate inhibition (HS578T; 0.12 µM) | normalised growth rate inhibition (HS578T; 0.37 µM) | normalised growth rate inhibition (HS578T; 1.11 µM) | normalised growth rate inhibition (HS578T; 3.33 µM) | normalised growth rate inhibition (HS578T; 10 µM) | normalised growth rate inhibition (MCF10A; 0.04 µM) | normalised growth rate inhibition (MCF10A; 0.12 µM) | normalised growth rate inhibition (MCF10A; 0.37 µM) | normalised growth rate inhibition (MCF10A; 1.11 µM) | normalised growth rate inhibition (MCF10A; 3.33 µM) | normalised growth rate inhibition (MCF10A; 10 µM) | normalised growth rate inhibition (MCF7; 0.04 µM) | normalised growth rate inhibition (MCF7; 0.12 µM) | normalised growth rate inhibition (MCF7; 0.37 µM) | normalised growth rate inhibition (MCF7; 1.11 µM) | normalised growth rate inhibition (MCF7; 3.33 µM) | normalised growth rate inhibition (MCF7; 10 µM) | normalised growth rate inhibition (MDAMB231; 0.04 µM) | normalised growth rate inhibition (MDAMB231; 0.12 µM) | normalised growth rate inhibition (MDAMB231; 0.37 µM) | normalised growth rate inhibition (MDAMB231; 1.11 µM) | normalised growth rate inhibition (MDAMB231; 3.33 µM) | normalised growth rate inhibition (MDAMB231; 10 µM) | normalised growth rate inhibition (SKBR3; 0.04 µM) | normalised growth rate inhibition (SKBR3; 0.12 µM) | normalised growth rate inhibition (SKBR3; 0.37 µM) | normalised growth rate inhibition (SKBR3; 1.11 µM) | normalised growth rate inhibition (SKBR3; 3.33 µM) | normalised growth rate inhibition (SKBR3; 10 µM)
1 | Cn1cnc2c(F)c(Nc3ccc(Br)cc3Cl)c(C(=O)NOCCO)cc21 [selumetinib] | 1.11 ± 0.084 | 1.03 ± 0.099 | 0.999 ± 0.059 | 1.01 ± 0.061 | 0.974 ± 0.093 | 0.975 ± 0.081 | 0.636 ± 0.094 | 0.53 ± 0.1 | 0.471 ± 0.068 | 0.428 ± 0.055 | 0.369 ± 0.036 | 0.26 ± 0.056 | 0.598 ± 0.026 | 0.455 ± 0.053 | 0.36 ± 0.056 | 0.281 ± 0.053 | 0.25 ± 0.041 | 0.177 ± 0.042 | 0.867 ± 0.13 | 0.696 ± 0.071 | 0.568 ± 0.062 | 0.543 ± 0.072 | 0.575 ± 0.063 | 0.524 ± 0.024 | 0.846 ± 0.078 | 0.702 ± 0.097 | 0.545 ± 0.088 | 0.458 ± 0.068 | 0.36 ± 0.068 | 0.2 ± 0.083 | 1.139 ± 0.0015 | 1.037 ± 0.0086 | 1.044 ± 0.0095 | 1.02 ± 0.052 | 1.02 ± 0.033 | 0.969 ± 0.034
2 | COc1cc2ncnc(Nc3ccc(F)c(Cl)c3)c2cc1OCCCN1CCOCC1 [gefitinib] | 1.04 ± 0.075 | 0.968 ± 0.11 | 0.94 ± 0.051 | 0.909 ± 0.075 | 0.878 ± 0.05 | 0.762 ± 0.11 | 0.999 ± 0.0098 | 0.9844 ± 0.0036 | 0.984 ± 0.015 | 0.986 ± 0.014 | 0.987 ± 0.0035 | 0.849 ± 0.015 | 0.887 ± 0.052 | 0.59 ± 0.11 | 0.265 ± 0.088 | 0.122 ± 0.01 | 0.121 ± 0.024 | 0.105 ± 0.022 | 1.09 ± 0.064 | 1.06 ± 0.069 | 1.05 ± 0.083 | 1.04 ± 0.092 | 1.03 ± 0.069 | 0.808 ± 0.04 | 1.07 ± 0.063 | 1.03 ± 0.068 | 1.019 ± 0.0099 | 1.02 ± 0.038 | 1.01 ± 0.069 | 0.897 ± 0.021 | 0.909 ± 0.055 | 0.74 ± 0.063 | 0.567 ± 0.076 | 0.418 ± 0.099 | 0.342 ± 0.12 | 0.048 ± 0.14
3 | O=C(NOCC1CC1)c1ccc(F)c(F)c1Nc1ccc(I)cc1Cl | 1.05 ± 0.03 | 1.032 ± 0.009 | 1.01 ± 0.043 | 0.9868 ± 0.0023 | 0.95 ± 0.018 | 0.289 ± 0.18 | 0.783 ± 0.081 | 0.686 ± 0.097 | 0.605 ± 0.12 | 0.528 ± 0.12 | 0.476 ± 0.094 | 0.267 ± 0.067 | 0.661 ± 0.016 | 0.547 ± 0.058 | 0.454 ± 0.059 | 0.371 ± 0.079 | 0.279 ± 0.068 | 0.165 ± 0.07 | 0.915 ± 0.15 | 0.81 ± 0.13 | 0.718 ± 0.059 | 0.646 ± 0.074 | 0.574 ± 0.034 | 0.344 ± 0.037 | 0.992 ± 0.058 | 0.8538 ± 0.0075 | 0.77 ± 0.023 | 0.63 ± 0.057 | 0.513 ± 0.05 | 0.181 ± 0.087 | 1.08 ± 0.054 | 1.05 ± 0.048 | 1.04 ± 0.023 | 1.02 ± 0.031 | 0.972 ± 0.077 | 0.611 ± 0.061
4 | Cc1cc(C(C)Nc2ccccc2)c2nc(N3CCOCC3)cc(=O)n2c1 (centres undefined) [TGX-221] | 0.914 ± 0.05 | 0.954 ± 0.032 | 1.01 ± 0.021 | 1.02 ± 0.052 | 1.06 ± 0.054 | 1.05 ± 0.026 | 0.9256 ± 0.0041 | 0.902 ± 0.044 | 0.91 ± 0.02 | 0.891 ± 0.029 | 0.597 ± 0.28 | 0.698 ± 0.093 | 0.968 ± 0.03 | 0.972 ± 0.039 | 0.971 ± 0.027 | 0.964 ± 0.033 | 0.591 ± 0.38 | 0.957 ± 0.08 | 0.82 ± 0.073 | 0.848 ± 0.018 | 0.96 ± 0.013 | 0.98 ± 0.034 | 0.79 ± 0.15 | 0.822 ± 0.076 | 0.779 ± 0.087 | 0.816 ± 0.083 | 0.826 ± 0.086 | 0.868 ± 0.042 | 0.691 ± 0.19 | 0.868 ± 0.03 | 0.681 ± 0.072 | 0.789 ± 0.049 | 0.907 ± 0.034 | 0.963 ± 0.036 | 0.961 ± 0.023 | 0.888 ± 0.03
